Results reported in patent publication US20240108658A1, “SYNERGISTIC STEM CELL-BASED MEDICATION FOR TREATING MYOCARDIAL INFARCTION AND RELATED APPLICATION” (SOOCHOW UNIVERSITY, priority 2021, published 2024).

Key:
transplanted MSCs = assay: Survival of transplanted CM-Dil-stained mesenchymal stem cells (immunofluorescence, flow cytometry); settings: MSCs + 2-DG 500 mg/kg/day intraperitoneal; 3rd day after surgery; FIG. 3
[1] = system: mouse myocardial infarction modelling (LAD ligation); assay: Ventricular remodeling: HW/BW and Masson staining, myocardial infarction area/heart area; format: in vivo, C57BL/6J mice; settings: MSCs + 2-DG 500 mg/kg/day intraperitoneal; 28 days after surgery; FIG. 2
Source text: The sham-operated group was only passed through the lower part of the LAD without ligation, and the rest were the same as the model group. After ligation, it turned white from the ligation site to the cardiac apex when observed with the naked eyes. The left ventricular tissue was taken for cardiac tissue staining after 1 week and obvious fibrosis was observed, indicating the successful establishment of the myocardial infarction modelling. […] Masson staining: The mice were euthanized 28 days after surgery, and left ventricular tissue was taken for cardiac tissue staining to observe the therapeutic effect. It was carried out according to the routine Masson staining steps, and the observation and photo-taking were carried out under a regular optical microscope. The image analysis software Image J was used to analyze the area of each part and calculate the myocardial infarction area/heart area.

[2] = system: mouse myocardial infarction modelling (LAD ligation); assay: Cardiac ultrasound testing of cardiac function after myocardial infarction (EF, FS, LVEDD, LVESD); format: in vivo, C57BL/6J mice
Source text: The sham-operated group was only passed through the lower part of the LAD without ligation, and the rest were the same as the model group. After ligation, it turned white from the ligation site to the cardiac apex when observed with the naked eyes. The left ventricular tissue was taken for cardiac tissue staining after 1 week and obvious fibrosis was observed, indicating the successful establishment of the myocardial infarction modelling. […] After anesthesia of mice (same method as before) and depilation, the mice lied on the left side, and the probe of the cardiac ultrasound diagnostic instrument was placed on the anterior wall of the heart, a two-dimensional short-axis view of the left ventricle at the papillary muscle level was taken and the M-mode ultrasonic scanning was recorded. And left ventricular ejection fraction (EF), shortening fraction (FS), left ventricular end diastolic diameter (LVEDD), and left ventricular end systolic diameter (LVESD) were measured for three consecutive cardiac cycles.

For `O=CC[C@@H](O)[C@H](O)[C@H](O)CO` [2-DG, 2-Deoxy-D-glucose], the “survival of transplanted MSCs” value (transplanted MSCs) was “significantly increases the survival of transplanted MSCs”, the “ventricular remodeling of mice treated with MSCs after myocardial infarction” value [1] was “improvement of ventricular remodeling” and the “cardiac function of mice treated with MSCs after myocardial infarction” value ([2]; MSCs 5×105 intramyocardial + 2-DG 500 mg/kg/day intraperitoneal, FIG. 1) was “improvement of cardiac function”. For the same molecule, the “function of MSCs in improving myocardial infarction (overall conclusion)” value ([2]; conclusion from Examples 1-3, MSCs + 2-DG) was “can effectively improve the function of MSCs in improving myocardial infarction”.
